Results taken from patent publication US8445468B2, “(20S,22E)-2-methylene-19-nor-22-ene-1α,25-dihydroxyvitamin D3” (Wisconsin Alumni Research Foundation, priority 2009, dated 2013).
Like-named read-outs stand apart in the source and are kept apart here.

What was measured:
[1] = target: T1, full-length recombinant rat vitamin D receptor (Rattus norvegicus, UniProt P13053); assay: Vitamin D receptor binding, competition with [3H]-1,25(OH)2D3; details: FIG. 1
T1 construct: Full-length recombinant rat receptor was expressed in E. coli BL21 (DE3) Codon Plus RIL cells; histidine tag (C); made in house; host or cells: E. coli BL21 (DE3) Codon Plus RIL
T1 sequence (P13053 1-423): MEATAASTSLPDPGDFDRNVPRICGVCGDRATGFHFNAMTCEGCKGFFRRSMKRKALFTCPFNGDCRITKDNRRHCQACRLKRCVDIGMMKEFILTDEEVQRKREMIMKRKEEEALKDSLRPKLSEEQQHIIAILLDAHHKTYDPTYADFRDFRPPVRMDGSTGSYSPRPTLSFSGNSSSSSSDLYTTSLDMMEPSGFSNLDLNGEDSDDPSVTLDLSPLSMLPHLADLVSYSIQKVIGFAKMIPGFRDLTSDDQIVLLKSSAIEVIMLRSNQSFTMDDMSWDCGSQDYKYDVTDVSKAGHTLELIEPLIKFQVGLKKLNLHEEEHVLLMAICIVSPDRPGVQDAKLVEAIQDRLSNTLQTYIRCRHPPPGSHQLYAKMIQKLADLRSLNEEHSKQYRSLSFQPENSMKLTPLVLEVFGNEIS
Experimental: Full-length recombinant rat receptor was expressed in E. coli BL21 (DE3) Codon Plus RIL cells and purified to homogeneity using two different column chromatography systems. The first system was a nickel affinity resin that utilizes the C-terminal histidine tag on this protein. The protein that was eluted from this resin was further purified using ion exchange chromatography (S-Sepharose Fast Flow). Aliquots of the purified protein were quick frozen in liquid nitrogen and stored at −80° C. until use. For use in binding assays, the protein was diluted in TEDK50 (50 mM Tris, 1.5 mM EDTA, pH7.4, 5 mM DTT, 150 mM KCl) with 0.1% Chaps detergent. The receptor protein and ligand concentration were optimized such that no more than 20% of the added radiolabeled ligand was bound to the receptor.
Radiolabeled and unlabeled ligands were added to 100 mcl of the diluted protein at a final ethanol concentration of ≦10%, mixed and incubated overnight on ice to reach binding equilibrium. The following day, 100 mcl of hydroxylapatite slurry (50%) was added to each tube and mixed at 10-minute intervals for 30 minutes. […] Total binding was determined from the tubes containing only radiolabeled ligand.

HL-60 cells = assay: HL-60 differentiation (nitro blue tetrazolium reduction); type: cell-based, human; details: FIG. 2; for EC50: differentiation of HL-60 cells into monocytes, read-out: EC50, HL-60 cell differentiation
Experimental: The study drugs were dissolved in ethanol and the concentrations determined using UV spectrophotometry. Serial dilutions were prepared so that a range of drug concentrations could be tested without changing the final concentration of ethanol (≦0.2%) present in the cell cultures.
Human promyelocytic leukemia (HL60) cells were grown in RPMI-1640 medium containing 10% fetal bovine serum. The cells were incubated at 37° C. in the presence of 5% CO2.
HL60 cells were plated at 1.2×10^5 cells/ml. Eighteen hours after plating, cells in duplicate were treated with drug. Four days later, the cells were harvested and a nitro blue tetrazolium reduction assay was performed (Collins et al., 1979; J. Exp. Med. 149:969-974). The percentage of differentiated cells was determined by counting a total of 200 cells and recording the number that contained intracellular black-blue formazan deposits. Verification of differentiation to monocytic cells was determined by measuring phagocytic activity (data not shown).

[2] = test system: 24-hydroxylase (24Ohase) gene promoter; assay: In vitro transcription assay, luciferase reporter in ROS 17/2.8 (bone) cells; type: cell-based; details: FIG. 3; for EC50: ROS 17/2.8 cells, 16 h after dosing, read-out: EC50, transcriptional activity in bone cells (24-hydroxylase gene)
Experimental: Transcription activity was measured in ROS 17/2.8 (bone) cells that were stably transfected with a 24-hydroxylase (24Ohase) gene promoter upstream of a luciferase reporter gene (Arbour et al., 1998). Cells were given a range of doses. Sixteen hours after dosing the cells were harvested and luciferase activities were measured using a luminometer.
RLU=relative luciferase units.

vitamin D-deficient rats [3] = assay: Bone calcium mobilization (serum calcium); type: in vivo, rat; details: FIG. 4; for serum calcium (bone calcium mobilization): 260 pmol/day ip for 4 consecutive days, rats on low calcium diet (0.02%); for bone calcium mobilization activity (in words): vitamin D-deficient rats, low calcium diet
Experimental: (§1) Male, weanling Sprague-Dawley rats were placed on Diet 11 (0.47% Ca) diet +AEK oil for one week followed by Diet 11 (0.02% Ca)+AEK oil for 3 weeks. The rats were then switched to a diet containing 0.47% Ca for one week followed by two weeks on a diet containing 0.02% Ca. Dose administration began during the last week on 0.02% calcium diet. Four consecutive ip doses were given approximately 24 hours apart. Twenty-four hours after the last dose, blood was collected from the severed neck and the concentration of serum calcium determined as a measure of bone calcium mobilization. The first 10 cm of the intestine was also collected for intestinal calcium transport analysis using the everted gut sac method.

vitamin D-deficient rats [4] = assay: Intestinal calcium transport (everted gut sac method); type: in vivo, rat; details: FIG. 5
Experimental: as §1

| Compound | affinity to the nuclear vitamin D receptor compared to 1,25-(OH)2D3 (in words) ([1]; full length recombinant rat VDR) | Ki ([1]; full-length recombinant rat vitamin D receptor, read-out: Ki, competition with [3H]-1,25(OH)2D3 for binding to VDR) | EC50 (HL-60 cells; Homo sapiens) | potency on HL-60 cell differentiation relative to 1,25(OH)2D3 (HL-60 cells; fold more potent than 1,25(OH)2D3) | EC50 [2] | potency in increasing transcription of the 24-hydroxylase gene relative to 1,25(OH)2D3 ([2]; bone cells, fold more potent than 1,25(OH)2D3) | serum calcium (bone calcium mobilization) (vitamin D-deficient rats [3]) | bone calcium mobilization activity (in words) (vitamin D-deficient rats [3]) | intestinal calcium transport activity compared to 1,25(OH)2D3 (vitamin D-deficient rats [4]; 32 pmol/day for 4 consecutive days) | intestinal calcium transport, dose dependence (in words) (vitamin D-deficient rats [4]; vitamin D-deficient rats) | EC50 (HL-60 cells) |
| --- | --- | --- | --- | --- | --- | --- | --- | --- | --- | --- | --- |
| C=C1[C@H](O)CC(=C/C=C2\CCC[C@]3(C)[C@@H]([C@@H](C)/C=C/CC(C)(C)O)CC[C@@H]23)C[C@H]1O [Compound N-23, (20S,22E)-2-Methylene-19-nor-22-ene-1α,25-dihydroxyvitamin D3] | same affinity | 60 pM | 100 pM | about 10 times | 20 pM | about 10 times | 6.8 mg/dL | slightly more bone calcium mobilization activity | less activity | dose dependent manner |  |
| C=C1/C(=C\C=C2/CCC[C@]3(C)[C@@H]([C@H](C)CCCC(C)(C)O)CC[C@@H]23)C[C@@H](O)C[C@@H]1O [1,25(OH)2D3, 1α,25-dihydroxyvitamin D3] |  |  |  |  | 200 pM |  | 6.1 mg/dL | increased serum calcium levels at all dosages |  |  | 2000 pM |
